# Columns and labels:
# [1] = tested on: AAD-12 (v1)-containing T0 soybean plants; experiment: 2,4-D spray application on T0 soybean; assay type: in vivo, Glycine max
# From the text: Plants that are transferred to the greenhouse can be assayed for the presence of an active PAT gene further with a non-destructive manner by painting a section of leaf of the T0 primary transformant, or progeny thereof, with a glufosinate solution [0.05-2% v/v Liberty Herbicide, preferably 0.25-1.0% (v/v),=500-2000 ppm glufosinate, Bayer Crop Science]. Depending on the concentration used, assessment for glufosinate injury can be made 1-7 days after treatment. Plants can also be tested for 2,4-D tolerance in a non-destructive manner by selective application of a 2,4-D solution in water (0.25-1% v/v commercial 2,4-D dimethylamine salt formulation, preferably 0.5% v/v=2280 ppm 2,4-D ae) to the terminal leaflet of the newly expanding trifoliolate one or two, preferably two, nodes below the youngest emerging trifolioate. This assay allows assessment of 2,4-D sensitive plants 6 hours to several days after application by assessment of leaf flipping or rotation >90 degrees from the plane of the adjacent leaflets. Plants tolerant to 2,4-D will not respond to 2,4-D. To plants will be allowed to self fertilize in the greenhouse to give rise to T1 seed. T1 plants (and to the extent enough T0 plant clones are produced) will be sprayed with a range of herbicide doses to determine the level of herbicide protection afforded by AAD-12 (v1) and PAT genes in transgenic soybean. Rates of 2,4-D used on T0 plants will typically comprise one or two selective rates in the range of 100-1120 g ae/ha using a track sprayer as previously described. T1 plants will be treated with a wider herbicide dose ranging from 50-3200 g ae/ha 2,4-D. Likewise, T0 and T1 plants can be screened for glufosinate resistance by postemergence treatment with 200-800 and 50-3200 g ae/ha glufosinate, respectively. Glyphosate resistance (in plants transformed with constructs that contain EPSPS) or another glyphosate tolerance gene can be assessed in the T1 generation by postemergence applications of glyphosate with a dose range from 280-2240 g ae/ha glyphosate. Analysis of protein expression will occur as described in below. Individual T0 plants were assessed for the presence of the coding region of the gene of interest (AAD-12 (v1) or PAT v6) and copy number. Determination of the inheritance of AAD-12 (v1) will be made using T1 and T2 progeny segregation with respect to herbicide tolerance as described in previous examples. […]
# [2] = tested on: PAT-only transformed soybean plants; experiment: 2,4-D leaf paint (leaf flip assay) on PAT-only transformed soybean; assay type: in vivo, Glycine max; design: key: 1 = Flip; 0 = No Flip; conditions: event D-2-3 (pDAB4499, PAT, CsVMV)
# From the text: Plants that are transferred to the greenhouse can be assayed for the presence of an active PAT gene further with a non-destructive manner by painting a section of leaf of the T0 primary transformant, or progeny thereof, with a glufosinate solution [0.05-2% v/v Liberty Herbicide, preferably 0.25-1.0% (v/v),=500-2000 ppm glufosinate, Bayer Crop Science]. Depending on the concentration used, assessment for glufosinate injury can be made 1-7 days after treatment. Plants can also be tested for 2,4-D tolerance in a non-destructive manner by selective application of a 2,4-D solution in water (0.25-1% v/v commercial 2,4-D dimethylamine salt formulation, preferably 0.5% v/v=2280 ppm 2,4-D ae) to the terminal leaflet of the newly expanding trifoliolate one or two, preferably two, nodes below the youngest emerging trifolioate. […] Glyphosate resistance (in plants transformed with constructs that contain EPSPS) or another glyphosate tolerance gene can be assessed in the T1 generation by postemergence applications of glyphosate with a dose range from 280-2240 g ae/ha glyphosate. […] Individual T0 plants were assessed for the presence of the coding region of the gene of interest (AAD-12 (v1) or PAT v6) and copy number. […]
# A subset of the initial transformants were assessed in the T0 generation according to the methods above. […]
# AAD-12 (v2) = molecular target: T1, AAD-12 (v2) (Delftia acidovorans, UniProt P83309); experiment: Chloropyridinol detection assay (absorbance at 325 nm); assay type: biochemical
# T1 construct: made in house; host or cells: Pseudomonas fluorescens strain MB324 (construct pDAB739)
# T1 sequence (P83309 whole entry, looked up, natural form): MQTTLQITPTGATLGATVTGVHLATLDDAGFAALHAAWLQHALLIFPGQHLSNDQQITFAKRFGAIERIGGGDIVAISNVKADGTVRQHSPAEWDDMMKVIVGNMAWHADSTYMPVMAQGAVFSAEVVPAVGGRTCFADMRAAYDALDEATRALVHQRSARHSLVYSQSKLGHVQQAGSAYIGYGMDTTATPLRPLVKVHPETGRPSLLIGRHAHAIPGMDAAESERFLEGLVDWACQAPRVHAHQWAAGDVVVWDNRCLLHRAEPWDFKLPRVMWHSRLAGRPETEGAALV
# From the text: AAD-12 action on potential substrates such as the herbicide triclopyr containing a substituted pyridine (rather than benzene rings) will release a pyridinol on cleavage of the aryloxyalkanoate bond. Pyridinols were not detected using the aminoantipyrine/ferricyanide phenol detection described in the preceding section. […] This was used to create a continuous microplate-based spectrophotometric assay.
# All five pyridyloxyalkanoates were cleaved to release pyridinols by AAD-12 (v2). The rates for the oxypropionate substrates 116844 and 91767 were somewhat faster than those for the corresponding acetates (triclopyr and 93833 respectively) indicating a preference of AAD-12 (v2) for oxypropionate over oxyacetate side chains.
# [3] = event D-2-14 (pDAB4464, CsVMV), spray POST over the top 560 g ae/ha 2,4-D
# [4] = event D-3-5 (pDAB4468, AtUbi10), spray POST over the top 560 g ae/ha 2,4-D
# [5] = event D-3-6 (pDAB4468, AtUbi10), spray POST over the top 560 g ae/ha 2,4-D
# [6] = event D-3-9 (pDAB4468, AtUbi10), spray POST over the top 1120 g ae/ha 2,4-D
# [7] = event D-4-17 (pDAB4468, AtUbi10), spray POST over the top 1120 g ae/ha 2,4-D
# [8] = event D-5-2 (pDAB4472, AtUbi3), spray POST over the top 560 g ae/ha 2,4-D
compound,measurement,setting,value
"O=C(O)COc1ccc(Cl)cc1Cl [2,4-D, 2,4-dichlorophenoxyacetic acid]",response to herbicide spray application,"[1]; 560 or 1120 g ae 2,4-D",clearly resistant
same,% injury 2 DAT,[1]; [3],0%
same,% injury 7 DAT,[1]; [3],0%
same,% injury 14 DAT,[1]; [3],0%
same,% injury 2 DAT,[1]; [4],0%
same,% injury 7 DAT,[1]; [4],0%
same,% injury 14 DAT,[1]; [4],0%
same,% injury 2 DAT,[1]; [5],0%
same,% injury 7 DAT,[1]; [5],0%
same,% injury 14 DAT,[1]; [5],0%
same,% injury 2 DAT,[1]; [6],0%
same,% injury 7 DAT,[1]; [6],0%
same,% injury 14 DAT,[1]; [6],0%
same,% injury 2 DAT,[1]; [7],5%
same,% injury 7 DAT,[1]; [7],0%
same,% injury 14 DAT,[1]; [7],0%
same,% injury 2 DAT,[1]; [8],5%
same,% injury 7 DAT,[1]; [8],0%
same,% injury 14 DAT,[1]; [8],0%
same,Leaf flip assay (18 HAT) Node N-2,[2],1
O=C(O)COc1nc(Cl)c(Cl)cc1Cl [triclopyr],Rate relative to triclopyr,"AAD-12 (v2); 6.8 μg AAD-12 (v2), 1 mM substrate",1
same,Rate (mAU/min),"AAD-12 (v2); 6.8 μg AAD-12 (v2), 1 mM substrate, 325 nm, background rate 1.4 mAU/min subtracted",97 mAU/min
same,inhibition at 2000 µM,AAD-12 (v2); read-out: Substrate inhibition at 2 mM,0%
same,"rate of AAD-12 (v2) cleavage relative to that of 2,4-D",AAD-12 (v2); under maximal velocity conditions,~5%
same,substrate inhibition,AAD-12 (v2); up to 2 mM,No substrate inhibition

# — patent US11371055B2, “Herbicide resistance genes” (CORTEVA AGRISCIENCE LLC, priority 2005, dated 2022)
